Test results taken from patent publication US5397781A, “Pyrimidine derivatives” (Mochida Pharmaceutical Company, Limited, priority 1992, dated 1995).

How the values were obtained:
serum total cholesterol = test: Hypocholesterolemic effect on cholesterol feeding rats; assay type: in vivo, male Wistar rats; conditions: Rattus norvegicus, oral, high cholesterol diet rats, read-out: % reduction of serum total cholesterol; for inhibition in vivo at 10 mg/kg: 10 mg/kg/day
Protocol: Hypocholesterolemic effect on cholesterol feeding rats. Male Wistar rats aged 7 weeks old were fed a diet (CE®) supplemented with 2%(w/w) cholesterol, 0.5%(w/w) sodium cholate, 10%(w/w) lard, 0.2%(w/w) propylthiouracyl and 5%(w/w) sucrose, for 3 days. Following 3 days, the compounds of the present invention were administered orally, and the animals were maintained with the high cholesterol diet. On the next day of final drug administration, blood was drown and serum total cholesterol-levels were measured enzymatically by autoanalyzer. CL277082 was used as a reference compound.

male Wistar rats = test: Acute toxicity; assay type: in vivo; conditions: 7 days observation
From the text: The pyrimidine derivatives of the present invention were examined for acute toxicity by using male Wistar rats fasted over night aged 7 weeks old.

ACAT = molecular target: T1, ACAT (Rattus norvegicus, UniProt Q7TQM4); test: Inhibitory effect on microsomal ACAT activity in rat liver; assay type: biochemical; conditions: rat liver microsomes; read-out: IC50 (50% inhibition of cholesterol esterification)
T1 construct: Liver microsomes as an enzyme sample of ACAT were prepared from overnight-fasted male rats; from tissue; host or cells: liver of overnight-fasted male rats, 6 weeks old; microsomes
T1 sequence (Q7TQM4 1-524): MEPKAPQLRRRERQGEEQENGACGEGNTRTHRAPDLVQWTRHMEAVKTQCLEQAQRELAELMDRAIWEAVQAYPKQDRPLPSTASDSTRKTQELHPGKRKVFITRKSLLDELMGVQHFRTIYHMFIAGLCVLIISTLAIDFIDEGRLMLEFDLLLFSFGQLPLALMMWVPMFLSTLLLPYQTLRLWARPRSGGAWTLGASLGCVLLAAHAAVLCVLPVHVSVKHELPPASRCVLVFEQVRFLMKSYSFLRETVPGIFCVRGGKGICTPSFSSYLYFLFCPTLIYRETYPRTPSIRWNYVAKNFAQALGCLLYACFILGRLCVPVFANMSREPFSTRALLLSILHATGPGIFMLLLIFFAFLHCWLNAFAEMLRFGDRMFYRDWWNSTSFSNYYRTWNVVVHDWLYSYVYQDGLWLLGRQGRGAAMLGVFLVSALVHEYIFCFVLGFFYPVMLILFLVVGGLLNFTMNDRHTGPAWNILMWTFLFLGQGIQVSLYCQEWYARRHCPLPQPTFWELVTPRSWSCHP

macrophages = test: Inhibitory effect on cholesteryl ester accumulation in macrophages; assay type: cell-based, mouse (ddy-family male mice); conditions: Macrophage; mouse peritoneal macrophages, β-VLDL, [3H]oleic acid, 3 hrs; read-out: Inhibition activity on cholesteryl ester accumulation (IC50 grade)
Protocol: Inhibitory effect on cholesteryl ester accumulation in macrophages.
Namely resident peritoneal cells suspended in phosphate-buffered saline (PBS) were plated in plastic Petri dishes (35 mm×10 mm) at a density of 2×10^6 cells. The adherent macrophages were cultured overnight at 37° C. in Dalbecco's modified Eagle medium (DME) containing 10% fetal bovine serum (FCS) under humidified 5% CO2. […] After discarding the medium, each macrophage monolayer was washed with PBS and lipids were extracted with hexane/isopropyl alcohol (3:2). Cholesteryl esters in the extract were separated by thin-layer chromatography and the radioactivity was measured by liquid scintillation counter.

SMILES | inhibition in vivo at 10 mg/kg (serum total cholesterol) [%] | lethal incident (acute toxicity) (male Wistar rats; single oral dose 1 g/kg) | IC50 (ACAT) [nM] | IC50 (macrophages) [nM] | inhibition in vivo at 30 mg/kg (serum total cholesterol; 30 mg/kg/day) [%] | lethal incident (acute toxicity) (male Wistar rats; single oral dose 2 g/kg)
CCCCCCN(CCCC(=O)Nc1c(SCC)nc(C)nc1N(CC)CC)c1ccccc1 [Example 260, N-[4-(N,N-dietylamino)-6-ethylthio-2-methylpyrimidin-5-yl]-4-(N-hexyl-N-phenylamino)butanamide] | 70 | no lethal incident was observed | – | – | – | –
CCCCN(CCCC)c1nc(C)nc(OCC)c1NC(=O)CCCCN(CCC)c1ccccc1 [Example 196, N-[4-(N,N-dibutylamino)-6-ethoxy-2-methylpyrimidin-5-yl]-5-(N-phenyl-N-propylamino)pentanamide] | 48 | no lethal incident was observed | – | – | – | –
CCCCCCN(CCCC(=O)Nc1c(SC)nc(C)nc1N(CC)CC)c1ccccc1OC [Example 240, N-[4-(N,N-diethylamino)-2-methyl-6-methylthiopyrimidin-5-yl]-4-[N-hexyl-N-(2-methoxyphenyl)amino]butanamide] | – | no lethal incident was observed | 73 | – | – | –
CCCCCCN(CCCC(=O)Nc1c(SC)nc(C)nc1N1CCOCC1)c1ccccc1 [Example 231, N-[2-methyl-4-methylthio-6-morpholinopyrimidin-5-yl]-4-(N-hexyl-N-phenylamino)butanamide] | – | no lethal incident was observed | – | – | – | –
CCCCCCN(CCCC(=O)Nc1c(SC)nc(OC)nc1N(CC)CC)c1ccccc1 [Example 233, N-[4-(N,N-diethylamino)-2-methoxy-6-methylthiopyrimidin-5-yl]-4-(N-hexyl-N-phenylamino)butanamide] | 76 | no lethal incident was observed | – | – | – | –
CCCCCCN(CCCC(=O)Nc1c(SC)ncnc1N(CC)CC)c1ccccc1 [Example 232, N-[4-(N,N-diethylamino)-6-methylthiopyrimidin-5-yl]-4-(N-hexyl-N-phenylamino)butanamide] | 65 | no lethal incident was observed | – | – | – | –
CCCCCCN(CCCC(=O)Nc1c(SC(C)C)nc(C)nc1N(CC)CC)c1ccccc1 [Example 262, N-[4-(N,N-dietylamino)-6-isopropylthio-2-methylpyrimidin-5-yl]-4-(N-hexyl-N-phenylamino)butanamide] | 53 | no lethal incident was observed | – | – | – | –
CCCCCCN(CCCC(=O)Nc1c(S)nc(C)nc1N(CC)CC)c1ccccc1 [Example 155, N-[4-(N,N-diethylamino)-6-mercapto-2-methylpyrimidin-5-yl]-4-(N-hexyl-N-phenylamino)butanamide] | 66 | no lethal incident was observed | 88 | – | – | –
CCCCN(CCCC)c1nc(C)nc(SC)c1NC(=O)CCCCN(CCC)c1ccccc1 [Example 247, N-[4-(N,N-dibutylamino)-2-methyl-6-methylthiopyrimidin-5-yl]-5-(N-phenyl-N-propylamino)pentanamide] | 76 | no lethal incident was observed | 16 | 10 to 100 | – | –
CCCN(CCCC(=O)Nc1c(S)nc(C)nc1N(CCC)c1ccccc1)c1ccccc1 [Example 143, N-[4-mercapto-2-methyl-6-(N-phenyl-N-propylamino)pyrimidin-5-yl]-4-(N-phenyl-N-propylamino)butanamide] | – | – | 80 | 1000 to 10000 | 20 | no lethal incident was observed
CCCCCCCN(Cc1ccccc1)c1nc(C)nc(SC)c1NC(=O)CCCN(CCC)c1ccccc1 [Example 223, N-[4-(N-benzyl-N-heptylamino)-2-methyl-6-methylthiopyrimidin-5-yl]-4-(N-phenyl-N-propylamino)butanamide] | 70 | – | 64 | 10 to 100 | – | –
